Our source for the ring closure, isolated yield values is patent publication US20250197420A1, “MACROCYCLIC COMPOUNDS, COMPOSITIONS, AND METHODS OF USING THEREOF” (Sionna Therapeutics Inc., priority 2022, published 2025).

Where two headings read alike, the source gives them in different places.

Consider `CCOC(=O)CCc1cccc(C2(C)CCCOC(=O)N(C)C/C=C/c3c(c(F)cc4[nH]ccc34)Oc3ccc(F)c(c3)-c3ncc2[nH]3)c1` (centres unmarked), for which the ring closure, isolated yield (from CCC[CH2][Sn](/[CH]=C/CN(C)C(=O)OCCCC(C)(c1cccc(CCC(=O)OCC)c1)c1cnc(-c2cc(Oc3c(F)cc4[nH]ccc4c3Br)ccc2F)[nH]1)([CH2]CCC)[CH2]CCC, cc_pd bond, 19-membered ring) was 66%. Molecule `CN1C(=O)OCc2c(c(F)cc3c2ccn3S(=O)(=O)c2ccccc2)Oc2ccc(F)c(c2)-c2nc(nn2C)C(C)(c2cccc(Br)c2)C/C=C\CC1(C)C` (centres unmarked) displayed a ring closure, isolated yield (from (5-(3-(3-(2-(3-Bromophenyl)pent-4-en-2-yl)-1-methyl-1H-1,2,4-triazol-5-yl)-4-fluorophenoxy)-6-fluoro-1 -(phenylsulfonyl)-NH-indol-4-yl)methyl methyl(2-methylpent-4-en-2-yl)carbamate, rcm bond, 19-membered ring, Grubbs II (0.4 eq), toluene, 5.1 mM, 60.0 °C) of 60%. `CN1CC(C)(C)CCC[C@](C)(c2cccc(I)c2)c2nc(n(C)n2)-c2cc(ccn2)Oc2c(F)cc3[nH]ccc3c2/C=C/C1=O` yielded a ring closure, isolated yield (from CNCC(C)(C)CCC[C@](C)(c1cccc(I)c1)c1nc(-c2cc(Oc3c(F)cc4[nH]ccc4c3/C=C/C(=O)O)ccn2)n(C)n1, amide bond, 19-membered ring, 2 steps) of 37%. For the molecule `Cn1nc2nc1-c1cc(ccc1F)Oc1c(F)cc3[nH]ccc3c1CCC(=O)NS(=O)(=O)CC=CCC2(C)c1cccc(Br)c1` (centres unmarked), the ring closure, isolated yield (from C=CCC(C)(c1cccc(Br)c1)c1nc(-c2cc(Oc3c(F)cc4[nH]ccc4c3CCC(=O)NS(=O)(=O)CC=C)ccc2F)n(C)n1, rcm bond, 19-membered ring, Grubbs II (0.2 eq), toluene, 2.4 mM, 65.0 °C, 0.75 h) worked out at 60%.

“Methyl (2S)-3-[3-[(13E)-22,28-difluoro-3,6,10,10-tetramethyl-12,12-dioxo-]9-(p-tolylsulfonyl)-24-oxa-12A6-thia-3,4,11,19,30-pentazapentacyclo[23.3.1.12,5.015,23.016,20]triaconta-1(29),2(30),4,13,15,17,20,22,25,27-decaen-6-yl]phenyl]-2-methyl-propanoate” showed a ring closure, isolated yield (cc_pd bond, 18-membered ring, Pd(PtBu3)2/TEA, toluene, 1.75 mM, 100.0 °C) of 65%.
